Results published in patent US6407235B1, “Prodrug acid esters of [2-(4-benzyl-3-hydroxy-piperidin-1-yl)-ethansulfonyl]phenol” (Hoffmann-La Roche Inc., priority 2001, dated 2002).
In brackets after ≈: the same amount, converted by molar mass. Where two headings read alike, the source gives them in different places.

Experiments:
[1] = Solubility; assay type: physicochemical; settings: for Solubility at pH 7.4 relative to the parent compound, suggested/assumed from pH 4.0 data: pH 7.4, not measured directly
[2] = Stability in solution; assay type: physicochemical; settings: pH 7.4, 24 hours
[3] = system: NMDA receptor subtype; settings: known from WO 00/75109; cited from earlier work
[4] = pH 4, aqueous buffer, read-out: Solubility (μg/ml at pH 4)
[5] = pH 7, aqueous buffer, read-out: Solubility (μg/ml at pH 7)

Structure (SMILES) | solubility [1, 4] | solubility [1, 5] | Stability at pH 7.4 over 24 hours [2] | Solubility at pH 7.4 relative to the parent compound, suggested/assumed from pH 4.0 data [1] | NMDA receptor subtype specific blocker [3] | solubility ([1]; aqueous buffer, pH 4.8 (printed in the cell of the pH 4 column), read-out: Solubility (μg/ml) at pH 4.8) | Water solubility at physiological pH ([1]; physiological pH)
O=C(O)CCC(=O)Oc1ccc(S(=O)(=O)CCN2CC[C@H](Cc3ccccc3)[C@H](O)C2)cc1 [Example 1, Succinic Acid Mono-{(3S,4S)-4-[2-(4-benzyl-3-hydroxy-piperidin-1-yl)-ethanesulfonyl]-phenyl}ester] | 1800 µg/mL (≈ 3.78 mM) | 7690 µg/mL (≈ 16.2 mM) | – | – | – | – | –
CNCc1ccc(C(=O)Oc2ccc(S(=O)(=O)CCN3CC[C@H](Cc4ccccc4)[C@H](O)C3)cc2)cc1 [Example 10, 4-Methylaminomethyl-benzoic Acid (3S,4S)-4-[2-(4-benzyl-3-hydroxy-piperidin-1-yl)-ethanesulfonyl]-phenyl Ester] | 26100 µg/mL (≈ 49.9 mM) | – | unstable | higher solubility | – | – | –
NCc1ccc(C(=O)Oc2ccc(S(=O)(=O)CCN3CC[C@H](Cc4ccccc4)[C@H](O)C3)cc2)cc1 [Example 7, 4-Aminomethyl-benzoic Acid (3S,4S)-4-[2-(4-benzyl-3-hydroxy-piperidin-1-yl)-ethanesulfonyl]-phenyl Ester] | 6710 µg/mL (≈ 13.2 mM) | – | unstable | higher solubility can be assumed | – | – | –
O=S(=O)(CCN1CC[C@H](Cc2ccccc2)[C@H](O)C1)c1ccc(O)cc1 [Compound of formula II, (3S,4S)-4-[2-(4-benzyl-3-hydroxy-piperidin-1-yl)-ethanesulfonyl]-phenol, reference compound] | – | 47 µg/mL | – | – | good NMDA receptor subtype specific blocker | 7750 µg/mL | limited water solubility
CNCc1cccc(C(=O)Oc2ccc(S(=O)(=O)CCN3CC[C@H](Cc4ccccc4)[C@H](O)C3)cc2)c1 [Example 9, 3-Methylaminomethyl-benzoic Acid (3S,4S)-4-[2-(4-benzyl-3-hydroxy-piperidin-1-yl)-ethanesulfonyl]-phenyl Ester] | 86600 µg/mL (≈ 166 mM) | – | unstable | higher solubility | – | – | –
O=P(O)(O)Oc1ccc(S(=O)(=O)CCN2CC[C@H](Cc3ccccc3)[C@H](O)C2)cc1 [Example 2, Phosphoric Acid Mono-{(3S,4S)-4-[2-(4-benzyl-3-hydroxy-piperidin-1-yl)-ethanesulfonyl]-phenyl}ester] | 594 µg/mL (≈ 1.3 mM) | > 37600 µg/mL | – | – | – | – | –
O=C(Oc1ccc(S(=O)(=O)CCN2CC[C@H](Cc3ccccc3)[C@H](O)C2)cc1)c1cccc(CN2CCOCC2)c1 [Example 6, 3-Morpholin-4-ylmethyl-benzoic Acid (3S,4S)-4-[2-(4-benzyl-3-hydroxy-piperidin-1-yl)-ethanesulfonyl]-phenyl Ester] | 8500 µg/mL (≈ 14.7 mM) | 89 µg/mL (≈ 0.154 mM) | – | – | – | – | –
